Reference: patent US20090270407A1, “FUNGICIDAL ISOXAZOLIDINES” (E. I. DU PONT DE NEMOURS AND COMPANY, priority 2008, published 2009)
Where two headings read alike, the source gives them in different places. Marks after values point to notes of the source that are not given here.

Legend:
[1] = test system: Phytophthora infestans; type: in vivo; settings: 100 = 100 % disease control, 0 = no disease control relative to controls
[2] = test system: Puccinia recondita f. sp. tritici; assay: Test B: wheat leaf rust, preventive spray on wheat seedlings, visual disease rating; settings: 100 = 100 % disease control, 0 = no disease control relative to controls
[3] = test system: Botrytis cinerea; assay: Test E: tomato Botrytis, preventive spray on tomato seedlings, visual disease rating; settings: 100 = 100 % disease control, 0 = no disease control relative to controls
Text: General protocol for preparing test suspensions for Tests A-I: The test compounds were first dissolved in acetone in an amount equal to 3% of the final volume and then suspended at the desired concentration (in ppm) in acetone and purified water (50/50 mix) containing 250 ppm of the surfactant Trem® 014 (polyhydric alcohol esters). The resulting test suspensions were then used in Tests A-I. Spraying a 200 ppm test suspension to the point of run-off on the test plants was the equivalent of a rate of 500 g/ha.
The test suspension was sprayed to the point of run-off on tomato seedlings. The following day the seedlings were inoculated with a spore suspension of Botrytis cinerea (the causal agent of tomato Botrytis) and incubated in saturated atmosphere at 20° C. for 48 h, and then moved to a growth chamber at 24° C. for 3 additional days, after which time visual disease ratings were made.
(§1) All results are for 200 ppm except where followed by “*” which indicates 40 ppm.

[4] = test system: Erysiphe graminis f. sp. tritici; assay: Test A: wheat powdery mildew, preventive spray on wheat seedlings, visual disease rating; settings: 100 = 100 % disease control, 0 = no disease control relative to controls
[5] = test system: Septoria nodorum; assay: Test C: wheat glume blotch, preventive spray on wheat seedlings, visual disease rating; settings: 100 = 100 % disease control, 0 = no disease control relative to controls
[6] = test system: Alternaria solani; assay: Test F: tomato early blight, preventive spray on tomato seedlings, visual disease rating; settings: 100 = 100 % disease control, 0 = no disease control relative to controls
Text: (§2) General protocol for preparing test suspensions for Tests A-I: The test compounds were first dissolved in acetone in an amount equal to 3% of the final volume and then suspended at the desired concentration (in ppm) in acetone and purified water (50/50 mix) containing 250 ppm of the surfactant Trem® 014 (polyhydric alcohol esters). The resulting test suspensions were then used in Tests A-I. Spraying a 200 ppm test suspension to the point of run-off on the test plants was the equivalent of a rate of 500 g/ha. (An asterisk “*” next to the rating value indicates a 40 ppm test suspension.)
The test suspension was sprayed to the point of run-off on tomato seedlings. The following day the seedlings were inoculated with a spore suspension of Alternaria solani (the causal agent of tomato early blight) and incubated in a saturated atmosphere at 27° C. for 48 h, and then moved to a growth chamber at 20° C. for 5 days, after which time visual disease ratings were made.
(§3) A dash (−) indicates no test results. All results are for 200 ppm except where followed by “*” which indicates 40 ppm.

[7] = test system: Plasmopara viticola; assay: Test I: grape downy mildew, spray on grape seedlings after inoculation, visual disease rating; settings: 100 = 100 % disease control, 0 = no disease control relative to controls
Text: as §2
Grape seedlings were inoculated with a spore suspension of Plasmopara viticola (the causal agent of grape downy mildew) and incubated in a saturated atmosphere at 20° C. for 24 h. After a short drying period, the test suspension was sprayed to the point of run-off on the grape seedlings and then moved to a growth chamber at 20° C. for 6 days, after which time the test units were placed back into a saturated atmosphere at 20° C. for 24 h. Upon removal, visual disease ratings were made.
as §1

[8] = test system: Rhizoctonia oryzae; assay: Test G: turf brown patch, preventive spray on creeping bent grass seedlings, visual disease rating; settings: 200 ppm; 100 = 100 % disease control, 0 = no disease control relative to controls
Procedure: The test suspension was sprayed to the point of run-off on creeping bent grass seedlings. The following day the seedlings were inoculated with a spore suspension of Rhizoctonia oryzae (the causal agent of turf brown patch) and incubated in a saturated atmosphere at 27° C. for 48 h, and then moved to a growth chamber at 27° C. for 3 days, after which time visual disease ratings were made.
as §3

[9] = test system: Septoria tritici; assay: Test D: wheat leaf blotch, preventive spray on wheat seedlings, visual disease rating; type: in vivo; settings: 100 = 100 % disease control, 0 = no disease control relative to controls
Text: A dash (−) indicates no test results.

SMILES	Test H disease control rating ([1]; 200 ppm)	Test B disease control rating ([2]; 200 ppm)	Test E disease control rating ([3]; 200 ppm)	Test A disease control rating ([4]; 200 ppm)	Test C disease control rating ([5]; 200 ppm)	Test F disease control rating ([6]; 200 ppm)	Test I disease control rating ([7]; 200 ppm)	Test G disease control rating [8]	Test H disease control rating ([1]; 40 ppm (marked *))	Test C disease control rating ([5]; 40 ppm (marked *))	Test F disease control rating ([6]; 40 ppm (marked *))	Test D disease control rating ([9]; 40 ppm (marked *))	Test B disease control rating ([2]; 40 ppm (marked *))	Test E disease control rating ([3]; 40 ppm (marked *))	Test A disease control rating ([4]; 40 ppm (marked *))	Test I disease control rating ([7]; 40 ppm (marked *))	Test D disease control rating ([9]; 200 ppm)
CN1OC(C)(c2cccnc2)CC1c1ccc(Br)cc1 (racemic) [Compound 3]	0%	0%	79%	93%													
CN1OC(C)(c2cccnc2)CC1c1ccc(Br)cc1 (racemic) [Compound 4]	0%	32%	80%	90%	100%	0%	0%	0%									
CN1OC(C)(c2cccnc2)CC1c1ccc(C(C)(C)C)cc1 (racemic) [Compound 7]	0%	34%	99%	99%	69%	40%	0%	0%									
CN1OC(C)(c2cccnc2)CC1c1ccc(C(C)(C)C)cc1 (racemic) [Compound 8]	0%	69%	56%	99%	40%	0%	0%	0%									
CN1OC(C)(c2cccnc2)CC1c1ccc(Oc2ccccc2)cc1 (racemic) [Compound 9]	17%	82%	99%	99%	95%	78%	0%	0%									
CN1OC(C)(c2cccnc2)CC1c1ccc(Oc2ccccc2)cc1 (racemic) [Compound 10]	0%	82%	98%	93%	98%	0%	0%	0%									
CN1OC(C)(c2cccnc2)CC1c1ccc(-c2ccccc2)cc1 (racemic) [Compound 11]	0%	91%	99%	99%	97%	26%	0%	0%									
CN1OC(C)(c2cccnc2)CC1c1ccc(-c2ccccc2)cc1 (racemic) [Compound 12]	0%	74%	29%	99%	82%	0%	0%	0%									
Cc1ccc(-c2ccc(C3CC(C)(c4cccnc4)ON3C)cc2)cc1 (racemic) [Compound 14]									0* %	0* %	0* %	0* %	0* %	0* %	91* %	0* %	
CN1OC(C)(c2cccnc2)CC1c1ccc(I)cc1 (racemic) [Compound 15]	0%	0%	98%	99%	99%	100%	0%										98%
CN1OC(C)(c2cccnc2)CC1c1ccc(I)cc1 (racemic) [Compound 16]	0%	0%	56%	99%	95%	0%	0%										96%
CN1OC(C)(c2cccnc2)CC1c1ccc(-c2ccc(OC(F)(F)F)cc2)cc1 (racemic) [Compound 17]									0* %	0* %	15* %	30* %	0* %	94* %	100* %	0* %	
CN1OC(C)(c2cccnc2)CC1c1ccc(-n2cccn2)cc1 (racemic) [Compound 33]									0* %	99* %	58* %	80* %	0* %	39* %	99* %	0* %	
Cc1ccc(-c2ccc([C@H]3C[C@@](C)(c4cccnc4)ON3C)cc2)cc1 (relative stereo) [Compound 13, rel-3-[(3R,5S)-2,5-dimethyl-3-(4′-methyl[1,1′-biphenyl]-4-yl)-5-isoxazolidinyl]pyridine]									0* %	0* %	0* %	92* %	0* %	99* %	99* %	0* %	
CN1O[C@](C)(c2cccnc2)C[C@@H]1c1ccc(-n2ccc(C(F)(F)F)n2)cc1 (relative stereo) [Compound 35, rel-3-[(3R,5S)-2,5-dimethyl-3-[4-[3-(trifluoromethyl)-1H-pyrazol-1-yl]phenyl]-5-isoxazolidinyl]pyridine]									0* %	100* %	98* %	99* %	100* %	99* %	100* %	0* %	
CN1OC(C)(c2cccnc2)CC1c1ccc(-n2cccn2)cc1 (stereo not shown) [Compound 34]									0* %	99* %	6* %	88* %	0* %	56* %	98* %	0* %	
CN1OC(C)(c2cccnc2)CC1c1ccc(Br)cc1F (stereo not shown) [Compound 96]		0%	0%	48%	78%	0%											77%
CN1OC(C)(c2cccnc2)CC1c1ccc(Br)c(F)c1 (stereo not shown) [Compound 101]		0%	100%	99%	86%	99%											68%
